For 23 compounds, IC50 results are on record in patent publication US20090093454A1, “Chemical Compounds” (priority 2005, published 2009).

The structures appear in SMILES notation. A value given as a limit tells only on which side of the number the result lay.

This assay deals with HIV-1. Briefly: HIV infectivity assay (Table 2, strain not given). It counts as cell-based. The note with it: Human immunodeficiency virus 1, read-out: Activity Level. As to the method: Compounds were profiled against two HIV-1 viruses, the M-tropic (CCR5 utilizing) Ba-L strain and the T-tropic (CXCR4 utilizing) IIIB strain. Both viruses were propagated in human peripheral blood lymphocytes. Compounds were tested for there ability to block infection of the HOS cell line (expressing hCXCR4/hCCR5/hCD4/pHIV-LTR-luciferase) by either HIV-1 Ba-L or HIV-1, IIIB. Compound cytotoxicity was also examined in the absence of virus addition.
HOS cells (expressing hCXCR4/hCCR5/hCD4/pHIV-LTR-luciferase) were harvested and diluted in Dulbeccos modified Eagles media supplemented with 2% FCS and non-essential amino acid to a concentration of 60,000 cells/ml. The cells were plated into 96-well plates (100 ul per well) and the plates were placed in a tissue culture incubator (37° C.; 5% CO2/95% air) for a period of 24 h.
Subsequently, 50 ul of the desired drug solution (4 times the final concentration) was added to each well and the plates were returned to the tissue culture incubator (37° C.; 5% CO2/95% air) for 1 h. Following this incubation 50 ul of diluted virus was added to each well (approximately 2 million RLU per well of virus). The plates were returned to the tissue culture incubator (37° C.; 5% CO2/95% air) and were incubated for a further 96 h.
Following this incubation the endpoint for the virally infected cultures was quantified following addition of Steady-Glo Luciferase assay system reagent (Promega, Madison, Wis.). Cell viability or non-infected cultures was measured using a CellTiter-Glo luminescent cell viability assay system (Promega, Madison, Wis.). All luminescent readouts are performed on a Topcount luminescence detector (Packard, Meridien, Conn.).
Compounds were profiled against two HIV-1 viruses, the M-tropic (CCR5 utilizing) Ba-L strain and the T-tropic (CXCR4 utilizing) IIIB strain. Ba-L was propagated in either peripheral blood lymphocytes or SupT1/CCR5+/CXCR4+ cells. IIIB was propagated in peripheral blood lymphocytes. Compounds were tested for their ability to block infection of the HOS cell line (expressing hCXCR4/hCCR5/hCD4/pHIV-LTR-luciferase) by either HIV-1 Ba-L or HIV-1, IIIB. Compound cytotoxicity was also examined in the absence of virus addition.
HOS cells (expressing hCXCR4/hCCR5/hCD4/pHIV-LTR-luciferase) were harvested and diluted in Dulbeccos modified Eagles media supplemented with 2% FCS to a concentration of 120,000 cells/ml. The cells were plated into 96-well plates (50 μl per well) and the plates were placed in a tissue culture incubator (370° C.; 5% CO2/95% air) for a period of 24 h.
Subsequently, 50 μl of the desired drug solution (2 times the final concentration) was added to each well and the plates were returned to the tissue culture incubator (370° C.; 5% CO2/95% air) for 1 h. Following this incubation, 60 μl of diluted virus (4 times the final concentration) was added to 60 μl of 2× the final desired concentration of the compound and 100 μl of this compound/virus mix was added to each well (approximately 2 million RLU per well of virus). The plates were returned to the tissue culture incubator (370° C.; 5% CO2/95% air) and were incubated for a further 96 h.
For `CN1CCN(c2cccc3nc(CN4CCC[C@H]5CCc6cccnc6[C@H]54)c(CN4CCCC4)n23)CC1` [Example 58, (4aR,10bS)-1-{[5-(4-methyl-1-piperazinyl)-3-(1-pyrrolidinylmethyl)imidazo[1,2-a]pyridin-2-yl]methyl}-1,2,3,4,4a,5,6,10b-octahydro-1,10-phenanthroline], the IC50 was less than 100 nM. With `c1cnc2c(c1)CC[C@@H]1CCCN(Cc3cn4c(N5CCC(N6CCCCC6)CC5)cccc4n3)[C@H]21` [Example 71, (4aR,10bS)-1-{[5-(1,4′-bipiperidin-1′-yl)imidazo[1,2-a]pyridin-2-yl]methyl}-1,2,3,4,4a,5,6,10b-octahydro-1,10-phenanthroline], the IC50 is less than 100 nM. For the compound `CN1CCC(Nc2cccc3nc(CN4CCC[C@H]5CCc6cccnc6[C@H]54)cn23)CC1` [Example 68, 2-[(4aR,10bS)-3,4,4a,5,6,10b-hexahydro-1,10-phenanthrolin-1(2H)-ylmethyl]-N-(1-methyl-4-piperidinyl)imidazo[1,2-a]pyridin-5-amine], the IC50 is less than 100 nM.

On to `CNC1CCN(c2cccc3nc(CN4CCC[C@H]5CCc6cccnc6[C@H]54)cn23)C1` (stereo partly drawn) [Example 95, 1-{2-[(4aR,10bS)-3,4,4a,5,6,10b-hexahydro-1,10-phenanthrolin-1(2H)-ylmethyl]imidazo[1,2-a]pyridin-5-yl}-N-methyl-3-pyrrolidinamine], for which the IC50 is less than 100 nM. Turning to `CN(C)CCN(C)c1cccc2nc(CN3CCC[C@H]4CCc5cccnc5[C@H]43)cn12` [Example 70, N-{2-[(4aR,10bS)-3,4,4a,5,6,10b-hexahydro-1,10-phenanthrolin-1(2H)-ylmethyl]imidazo[1,2-a]pyridin-5-yl}-N,N′,N′-trimethyl-1,2-ethanediamine], the IC50 was less than 100 nM. On to `CN(C)CCCn1cnc(CN2CCC[C@H]3CCc4cccnc4[C@H]32)c1` [Example 51a, (3-{4-[(4aR,10bS)-3,4,4a,5,6,10b-hexahydro-1,10-phenanthrolin-1(2H)-ylmethyl]-1H-imidazol-1-yl}propyl)dimethylamine], for which the IC50 lay in the range of 500 to 10000 nM. Consider `N[C@@H]1CCN(c2cccc3nc(CN4CCC[C@H]5CCc6cccnc6[C@H]54)cn23)C1` [Example 110, (3R)-1-{2-[(4aR,10bS)-3,4,4a,5,6,10b-hexahydro-1,10-phenanthrolin-1(2H)-ylmethyl]imidazo[1,2-a]pyridin-5-yl}-3-pyrrolidinamine], for which the IC50 is less than 100 nM. For `CN(C)C1CN(c2cccc3nc(CN4CCC[C@H]5CCc6cccnc6[C@H]54)cn23)C1` [Example 98, 1-{2-[(4aR,10bS)-3,4,4a,5,6,10b-hexahydro-1,10-phenanthrolin-1(2H)-ylmethyl]imidazo[1,2-a]pyridin-5-yl}-N,N-dimethyl-3-azetidinamine], the IC50 lay within 100 to 500 nM. As to `c1cnc2c(c1)CC[C@H]1CCN(Cc3nc4ccccc4n3CCCN3CCCCC3)[C@H]21` (racemic) [Example 133, (trans) 1-({1-[3-(1-piperidinyl)propyl]-1H-benzimidazol-2-yl}methyl)-2,3,3a,4,5,9b-hexahydro-1H-pyrrolo[3,2-h]quinoline], the IC50 lay within 100 to 500 nM. With `c1cnc2c(c1)CC[C@@H]1CCCN(Cc3cn4c(N5CCC(N6CCCC6)CC5)cccc4n3)[C@H]21` [Example 72, (4aR,10bS)-1-({5-[4-(1-pyrrolidinyl)-1-piperidinyl]imidazo[1,2-a]pyridin-2-yl}methyl)-1,2,3,4,4a,5,6,10b-octahydro-1,10-phenanthroline], the IC50 is less than 100 nM.

Consider `CN1CCN(c2cccc3nc(CN4CCC[C@H]5CCc6cccnc6[C@H]54)c(CO)n23)CC1` [Example 54, [2-[(4aR,10bS)-3,4,4a,5,6,10b-hexahydro-1,10-phenanthrolin-1(2H)-ylmethyl]-5-(4-methyl-1-piperazinyl)imidazo[1,2-a]pyridin-3-yl]methanol], for which the IC50 is less than 100 nM. As to `c1ccc(Cn2ccnc2Cn2c(CN3CCC[C@@H]4CCc5cccnc5[C@H]43)nc3ccccc32)cc1` (relative stereo) [Example 46, (trans) 1-[(1-{[1-(phenylmethyl)-1H-imidazol-2-yl]methyl}-1H-benzimidazol-2-yl)methyl]-1,2,3,4,4a,5,6,10b-octahydro-1,10-phenanthroline], the IC50 lay in the range of 500 to 10000 nM. Turning to `CC(C)N1CCN(c2cccc3nc(CN4CCC[C@H]5CCc6cccnc6[C@H]54)cn23)CC1` [Example 82, (4aR,10bS)-1-({5-[4-(1-methylethyl)-1-piperazinyl]imidazo[1,2-a]pyridin-2-yl}methyl)-1,2,3,4,4a,5,6,10b-octahydro-1,10-phenanthroline], the IC50 was less than 100 nM. Next, `OCCN1CCN(c2cccc3nc(CN4CCC[C@H]5CCc6cccnc6[C@H]54)cn23)CC1` [Example 103, 2-(4-{2-[(4aR,10bS)-3,4,4a,5,6,10b-hexahydro-1,10-phenanthrolin-1(2H)-ylmethyl]imidazo[1,2-a]pyridin-5-yl}-1-piperazinyl)ethanol]: less than 100 nM. Turning to `c1ccc(N2CCN(c3cccc4nc(CN5CCC[C@H]6CCc7cccnc7[C@H]65)cn34)CC2)nc1` [Example 80, (4aR,10bS)-1-({5-[4-(2-pyridinyl)-1-piperazinyl]imidazo[1,2-a]pyridin-2-yl}methyl)-1,2,3,4,4a,5,6,10b-octahydro-1,10-phenanthroline], the IC50 is 100 to 500 nM.

Regarding `NCCCCn1c(CN2CCC[C@H]3CCc4cccnc4[C@H]32)nc2ccccc21` (racemic) [Example 38, (cis) 4-[2-(3,4,4a,5,6,10b-hexahydro-1,10-phenanthrolin-1(2H)-ylmethyl)-1H-benzimidazol-1-yl]-1-butanamine], the IC50 lay within 100 to 500 nM. For the compound `CN(C)CCCn1cncc1CN1CCC[C@H]2CCc3cccnc3[C@H]21` [Example 51b, (3-{5-[(4aR,10bS)-3,4,4a,5,6,10b-hexahydro-1,10-phenanthrolin-1(2H)-ylmethyl]-1H-imidazol-1-yl}propyl)dimethylamine], the IC50 is 500 to 10000 nM.

As to `CN1CCN(c2cccc3nc(CN4CCC[C@H]5CCc6cccnc6[C@@H]54)cn23)CC1` [Example 53, (4aR,10bR)-1-{[5-(4-methyl-1-piperazinyl)imidazo[1,2-a]pyridin-2-yl]methyl}-1,2,3,4,4a,5,6,10b-octahydro-1,10-phenanthroline], the IC50 is less than 100 nM. For `CN(C)CCCn1c(CN2CCC[C@H]3CCc4cccnc4[C@H]32)nc2ccccc21` (racemic) [Example 41, (cis) 3-[2-(3,4,4a,5,6,10b-hexahydro-1,10-phenanthrolin-1(2H)-ylmethyl)-1H-benzimidazol-1-yl]-N,N-dimethyl-1-propanamine], the IC50 is less than 100 nM. Regarding `CN1CCCC1CCNc1cccc2nc(CN3CCC[C@H]4CCc5cccnc5[C@H]43)cn12` (stereo partly drawn) [Example 104, 2-[(4aR,10bS)-3,4,4a,5,6,10b-hexahydro-1,10-phenanthrolin-1(2H)-ylmethyl]-N-[2-(1-methyl-2-pyrrolidinyl)ethyl]imidazo[1,2-a]pyridin-5-amine], the IC50 was less than 100 nM. As for `c1cnc2c(c1)CC[C@@H]1CCCN(Cc3cn4c(N5CCOCC5)cccc4n3)[C@H]21` (racemic) [Example 52, (cis) 1-{[5-(4-morpholinyl)imidazo[1,2-a]pyridin-2-yl]methyl}-1,2,3,4,4a,5,6,10b-octahydro-1,10-phenanthroline], the IC50 fell in the range of 500 to 10000 nM.

Take `OCCN1CCCN(c2cccc3nc(CN4CCC[C@H]5CCc6cccnc6[C@H]54)cn23)CC1` [Example 108, 2-(4-{2-[(4aR,10bS)-3,4,4a,5,6,10b-hexahydro-1,10-phenanthrolin-1(2H)-ylmethyl]imidazo[1,2-a]pyridin-5-yl}hexahydro-1H-1,4-diazepin-1-yl)ethanol]: the IC50 was less than 100 nM. With `CN1CCN(c2cccc3nc(CN4CCC[C@H]5CCc6cccnc6[C@H]54)n(C)c23)CC1` [Example 134, (4aR,10bS)-1-{[1-methyl-7-(4-methyl-1-piperazinyl)-1H-benzimidazol-2-yl]methyl}-1,2,3,4,4a,5,6,10b-octahydro-1,10-phenanthroline], the IC50 was less than 100 nM.
